# Data: patent US20050282863A1, “Novel-N substituted dihydrobenzothiepino, dihydrobenzoxepino and tetrahydro benzocyclohepta indoles as selective estrogen receptor modulators” (Council of Scientific & Industrial Research, priority 2004, published 2005)
# Where two headings read alike, the source gives them in different places.
# Key:
# [1] = biological target: T1, estrogen receptors (Rattus norvegicus, UniProt P06211); assay: Relative binding affinity (RBA) to estrogen receptors, 3H-estradiol competition assay; parameters: key: % of 17-beta-estradiol binding affinity (estradiol = 100); conditions: relative to 17-beta-estradiol (=100, percentage value); rat uterine cytosol, 3H-E2, 18 hrs at 4° C.
# T1 construct: Aliquot of uterine cytosol (200 μl; 2 uteri per ml) prepared in TEA buffer; from tissue; host or cells: uterine cytosol of immature estradiol-primed 20-21 day old rats
# T1 sequence (P06211 1-600): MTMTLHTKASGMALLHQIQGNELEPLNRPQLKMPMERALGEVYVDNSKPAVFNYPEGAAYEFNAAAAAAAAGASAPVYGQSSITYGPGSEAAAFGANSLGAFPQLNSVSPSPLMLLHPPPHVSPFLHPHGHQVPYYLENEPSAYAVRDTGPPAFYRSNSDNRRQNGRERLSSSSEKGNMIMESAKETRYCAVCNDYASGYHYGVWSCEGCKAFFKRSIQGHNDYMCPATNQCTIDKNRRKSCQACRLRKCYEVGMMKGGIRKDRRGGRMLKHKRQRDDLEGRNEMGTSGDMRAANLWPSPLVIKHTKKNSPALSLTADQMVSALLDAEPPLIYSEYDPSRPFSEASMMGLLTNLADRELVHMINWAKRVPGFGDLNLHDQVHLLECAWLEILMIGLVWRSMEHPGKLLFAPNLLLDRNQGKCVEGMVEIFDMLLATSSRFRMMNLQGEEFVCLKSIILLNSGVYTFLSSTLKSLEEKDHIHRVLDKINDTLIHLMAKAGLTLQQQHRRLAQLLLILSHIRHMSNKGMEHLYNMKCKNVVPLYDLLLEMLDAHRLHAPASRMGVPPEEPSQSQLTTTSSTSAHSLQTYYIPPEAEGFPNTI
# Method: The relative binding affinity (RBA) of the compounds for estrogen receptor is determined by competition assay, employing ^3H-estradiol (^3H-E2) as the radioligand. The test ligands and ^3H-E2 are incubated at 4° C. with cystol estrogen receptors obtained from uteri of immature estradoil-primed (1 μg/rat 24 h before autopsy) 20-21 days old rats. Aliquot of uterine cytosol (200 μl; 2 uteri per ml) prepared in TEA buffer (10 mM Tris, 1.5 mM EDTA, 0.02% sodium azide, pH 7.4) are incubated in duplicate with a fixed concentration of ^3H-E2 in the absence or presence of various concentrations of the competitor substance dissolved in 30 μl of the TEA buffer containing DMF as co-solvent (final concentration of DMF in the incubation mixture never exceeded 5%) for 18 hrs at 4° C. At the end of this period, dextran coated charcoal (5% Norit 0.5% dextran) suspension in 100 μl of TEA buffer is added to each tube, briefly vortexed and allowed to stand for 15 minutes at 4° C. The mixture is centrifuged at 800 g for 10 minutes and the supernatants counted for radioactivity in 10 ml of a dioxane-based scintillation fluid. RBA of the text compound is computed from a graph plotted between percent bound radioactivity verses log concentration of the test substance. […] This when multiplied with 100 gives the percentage value designated as RBA.
# [2] = system: adult female rats; assay: Post-coital antifertility efficacy in adult female rats; type: in vivo, rat; conditions: daily dose 10 mg/kg, oral, days 1-7 post-coitum
# Description: Adult female rats are caged overnight with coeval males of proven fertility and their vaginal smears are checked on the following morning. The day of presence of spermatozoa in the vaginal smear is taken as day 1 of pregnancy. Mated rats are isolated and randomized into various treatment groups and treated orally with the compound of invention or the vehicle on days 1-7/1-5 post-coitum. Animals of all the groups are autopsied on day 10 post-coitum and number and status of corpora lutea and implantation sites in each rat are recorded. The compounds of the present invention are considered active if there is complete absence of implantations in the uterus of all rats, in comparison to presence of normal implantations in the uterus of rats of vehicle control group.
# [3] = system: MCF-7 cells; assay: Antiproliferative/cytotoxic activity in cultured MCF-7 cells (SRB assay); type: cell-based; conditions: Homo sapiens, MCF7, 48 h, MCF-7, 48 h
# Method: The procedure is based on the following methods: New calorimetric assay for anticancer drug screening, Skehan et al., J Natn Cancer Inst, 82,1107, 1990 and Feasibility of a high-flux anticancer drug screen using a diverse panel of cultured human tumor cell lines, J Natn Cancer Inst, 83,757, 1991.
# A fully confluent flask of MCF-7 cells in trypsinized and 10^4 cells/well are plated in a 96 welled flat bottomed plate in 200 μl Minimum Essential Medium (MEM), pH 7.4 and allowed to attach for 24 h at 37° C. in a humidified CO2 incubator. Subsequently, the compound of invention dissolved in DMSO or ethanol is added at a specified concentration and further incubated for 48 h as before. The cells are then fixed in 50 μl cold 50% TCA and incubated for 1 h at 4° C. The supernatant is discarded and the plate is washed five times with deionized water and air-dried. 100 μl of 0.4% (w/v) Sulforhodamine B (SRB) in 1% acetic acid is added to each well and incubated at room temperature for 30 minutes. Unbound SRB is removed by five washes with chilled 1% acetic acid and the plate is air-dried. 200 μl of unbuffered 10 mM Tris base is added to solublize the bound stain for 5 minutes at room temperature and O.D. is read at 560 nm in a plate reader. The graph is plotted between O.D. and concentration and LC50 is calculated with respect to tamoxifen, which is used as a positive control.
# [4] = system: immature ovariectomized rats; assay: Estrogen antagonistic activity: inhibition in 17α-ethynylestradiol induced uterine weight gain in immature ovariectomized rats; type: in vivo, rat; conditions: 3 days
# Method: Twenty-one-day-old immature female rats are bilaterally ovariectomized under light ether anaesthesia and after post-operative rest for 7 days, are randomized into different treatment groups. Each rat receives the compounds of the invention and 0.02 mg/kg dose of 17-alfa-ethynylestradiol in 10% ethanol-distilled water once daily for 3 consecutive days on days 28-30 of age. A separate group of animals receiving only 17-alfa-ethynylestradiol (0.02 mg/kg) in 10% ethanol-distilled water for similar duration are used for comparison. At autopsy on day 31 of age, vaginal smear of each rat is taken and uterus is carefully excised, gently blotted, weighed and fixed for histology and histomorphometry using image analysis. Inhibition in 17-alfa-ethynylestradiol-induced premature opening of vagina, cornification of vaginal epithelium, increase in uterine fresh weight, total uterine and endometrial area and uterine luminal epithelial cell height are taken as parameters for evaluation of estrogen antagonistic activity.
# [5] = system: immature ovariectomized rats; assay: Estrogen agonistic activity: increase in uterine weight in immature ovariectomized rats; type: in vivo, rat; conditions: 3 days, percent of ovariectomized + vehicle group
# Method: Twenty-one-day-old immature female rats are bilaterally ovariectomized under light ether anaesthesia and, after post-operative rest for 7 days, are randomized into different treatment groups. Each rat receives the compound of the invention once daily for 3 consecutive days on days 28-30 of age. A separate group of animals receiving only the vehicle for similar duration serves as control. A autopsy 24 h after the last treatment on day 31 of age, vaginal smear of each rat is taken and uterus is carefully exised, gently blotted, weighed and fixed for histology and histomorphometry using image analysis. Premature opening of vagina, cornification of vaginal epitelium, increase in uterine fresh weight, total uterine and endometrial area and uterine luminal epithelial cell height are taken as parameters for evaluation of estrogen agonistic activity in comparision to rats of vehicle control group.
smiles,measurement,setting,value
"c1ccc2c(c1)SCCc1c-2n(CCCCCCN2CCCC2)c2ccccc12 [Example number 19, 12-[6-(Pyrrolidine-1-yl)hexyl]-6,7-dihydro-12H-benzothiepino [5,4-b]indole]",RBA,[1],0.053
"Oc1ccc2c(c1)c1c(n2CCCCCN2CCCCC2)-c2ccccc2SCC1 [Example number 29, 9-Hydroxy-12-[5-(piperidine-1-yl)pentyl]-6,7-dihydro-12H-benzothiepino [5,4-b]indole]",% Efficacy,[2],Inactive
same,RBA,[1],<0.001
"COc1ccc2c(c1)SCCc1c-2n(CCCCCN2CCCC2)c2ccc(OC)cc12 [Example number 33, 3,9-Dimethoxy-12-[5-(pyrrolidine-1-yl)pentyl]-6,7-dihydro-12H-benzothiepino [5,4-b]indole]",CC50,"[3]; read-out: LC50, Test-4",18.2 µM
same,RBA,[1],<0.001
"c1ccc2c(c1)SCCc1c-2n(Cc2ccc(OCCCCCN3CCCCC3)cc2)c2ccccc12 [Example number 60, 12-[4-(5-Piperidin-1-yl-pentyloxy)benzyl]-6,7-dihydro-12H-benzothiepino [5,4-b]indole]",CC50,"[3]; read-out: LC50, Test-4",18.4 µM
same,% Efficacy,[2],Inactive
"COc1ccc2c(c1)SCCc1c-2n(CCCCCN2CCCCC2)c2ccccc12 [Example number 22, 3-Methoxy-12-[5-(piperidine-1-yl)pentyl]-6,7-dihydro-12H-benzothiepino [5,4-b]indole]",CC50,"[3]; read-out: LC50, Test-4",19.5 µM
same,RBA,[1],<0.001
"Oc1ccc2c(c1)SCCc1c-2n(CCCCCN2CCCC2)c2ccccc12 [Example number 25, 3-Hydroxy-12-[5-(pyrrolidine-1-yl)pentyl]-6,7-dihydro-12H-benzothiepino [5,4-b]indole]",CC50,"[3]; read-out: LC50, Test-2",15 µM
same,RBA,[1],0.83
"COc1ccc2c(c1)SCCc1c-2n(CCCCCN2CCCC2)c2ccccc12 [Example number 23, 3-Methoxy-12-[5-(pyrrolidine-1-yl)pentyl]-6,7-dihydro-12H-benzothiepino [5,4-b]indole]",CC50,"[3]; read-out: LC50, Test-4",60 µM
same,RBA,[1],<0.001
"CCCCN(C)CCCCCCn1c2c(c3ccccc31)CCSc1ccccc1-2 [Example number 20, 12-[6-(N-butylmethylamino)hexyl]-6,7-dihydro-12H-benzothiepino [5,4-b]indole]",RBA,[1],0.10
"CC/C(=C(\c1ccccc1)c1ccc(OCCN(C)C)cc1)c1ccccc1 [Tamoxifen, reference compound]",CC50,"[3]; read-out: LC50, Test-1",18.5 µM
same,CC50,"[3]; read-out: LC50, Test-2",5.5 µM
same,CC50,"[3]; read-out: LC50, Test-3",12.4 µM
same,CC50,"[3]; read-out: LC50, Test-4",9.8 to 10 µM
"c1ccc2c(c1)SCCc1c-2n(CCCN2CCCCC2)c2ccccc12 [Example number 7, 12-[3-(Piperidine-1-yl)propyl]-6,7-dihydro-12H-benzothiepino [5,4-b]indole]",CC50,"[3]; read-out: LC50, Test-1",46 µM
same,% Efficacy,[2],Inactive
same,inhibition in vivo at 10 mg/kg/day,"[4]; Rattus norvegicus, 72 h, daily dose 10 mg/kg with 0.02 mg/kg 17-alfa-ethynylestradiol, read-out: Percent inhibition in 17α-ethynylestradiol induced uterine weight gain",15.4%
same,change in vivo at 3 mg/kg,"[5]; Rattus norvegicus, 72 h, daily dose 3 mg/kg",24.6%
same,change in vivo at 10 mg/kg,"[5]; Rattus norvegicus, 72 h, daily dose 10 mg/kg",109%
"c1ccc2c(c1)SCCc1c-2n(Cc2ccc(OCCCCCN3CCCCC3)cc2)c2ccccc12 [Example number 43, 12-[4-(5-Piperidin-1-yl-pentyloxy)benzyl]-6,7-dihydro-12H-benzothiepino [5,4-b]indole]",% Efficacy,[2],Inactive
"c1ccc2c(c1)SCCc1c-2n(CCCCN2CCCCC2)c2ccccc12 [Example number 9, 12-[4-(Piperidine-1-yl)butyl]-6,7-dihydro-12H-benzothiepino [5,4-b]indole]",CC50,"[3]; read-out: LC50, Test-2",37.4 µM
"CCCCN(C)CCCCCn1c2c(c3ccccc31)CCSc1ccccc1-2.O=C1O[C@H]([C@@H](O)CO)C(O)=C1O [Example number 15, 12-[5-(N-butylmethylamino)pentyl]-6,7-dihydro-12H-benzothiepino [5,4-b]indole ascorbic acid salt]",Percent inhibition in 17α-ethynylestradiol induced uterine weight gain,[4]; daily dose 1 mg/kg with 0.02 mg/kg 17-alfa-ethynylestradiol,10.00%
same,Percent inhibition in 17α-ethynylestradiol induced uterine weight gain,[4]; daily dose 3 mg/kg with 0.02 mg/kg 17-alfa-ethynylestradiol,23.00%
same,Percent inhibition in 17α-ethynylestradiol induced uterine weight gain,[4]; daily dose 10 mg/kg with 0.02 mg/kg 17-alfa-ethynylestradiol,15.00%
same,Percent increase in uterine weight,[5]; daily dose 1 mg/kg,11.00%
same,Percent increase in uterine weight,[5]; daily dose 3 mg/kg,15.00%
same,Percent increase in uterine weight,[5]; daily dose 10 mg/kg,11.50%
"CCCCN(C)CCCCCn1c2c(c3cc(OC)ccc31)CCSc1cc(OC)ccc1-2 [Example number 34, 3,9-Dimethoxy-12-[5-(N-butylmethylamino)pentyl]-6,7-dihydro-12H-benzothiepino [5,4-b]indole]",RBA,[1],0.032
"C#C[C@]1(O)CC[C@H]2[C@@H]3CCc4cc(O)ccc4[C@H]3CC[C@@]21C [17α-Ethynylestradiol, reference compound]",Percent increase in uterine weight,[5]; daily dose 0.01 mg/kg,419%
"COc1ccc2c(c1)SCCc1c-2n(CCCCCN2CCCCC2)c2ccc(OC)cc12 [Example number 32, 3,9-Dimethoxy-12-[5-(piperidine-1-yl)pentyl]-6,7-dihydro-12H-benzothiepino [5,4-b]indole]",CC50,"[3]; read-out: LC50, Test-4",28 µM
same,RBA,[1],<0.001
